The source of these data is BindingDB's records for doi:10.1016/j.bioorg.2016.07.007 (Jamia Hamdard (Hamdard University), 2016).

One may read the IC50 as the concentration that inhibits the measured activity by half. Low values mean higher potency, high ones lower potency.

The target in the assay is Glycogen synthase kinase-3 beta (Homo sapiens, UniProt P49841). In words: GSK-3β activity assay.
Glycogen synthase kinase-3 beta, sequence (P49841 whole entry): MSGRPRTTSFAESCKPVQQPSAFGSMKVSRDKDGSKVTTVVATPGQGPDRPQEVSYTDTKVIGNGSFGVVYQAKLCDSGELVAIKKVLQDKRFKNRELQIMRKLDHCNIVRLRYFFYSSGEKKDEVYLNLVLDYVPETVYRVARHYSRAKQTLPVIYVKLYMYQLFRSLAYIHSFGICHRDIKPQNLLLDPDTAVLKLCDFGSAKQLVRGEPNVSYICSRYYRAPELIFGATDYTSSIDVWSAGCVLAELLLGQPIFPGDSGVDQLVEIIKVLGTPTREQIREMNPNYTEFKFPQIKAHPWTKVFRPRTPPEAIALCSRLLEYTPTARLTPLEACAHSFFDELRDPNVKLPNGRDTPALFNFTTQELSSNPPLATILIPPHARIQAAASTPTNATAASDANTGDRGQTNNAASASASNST
Protocol: In a typical assay, 10 µL of test compound of different concentrations (dissolved in dimethyl sulfoxide [DMSO] and diluted with assay buffer) and 10 µL (20 ng) of enzyme were added to each well followed by 20 µL of assay buffer containing 25 µM substrate and 1 µM ATP. The final DMSO concentration in the reaction mixturewas less than 1%. After incubation at 30 °C for 30 min, the enzymatic reaction was quenched with 40 µL of Kinase-Glo reagent. Luminescence was recorded after 10 min using Infinite F200 PRO multimode reader (Tecan).
The compound `Cn1c(SCc2cn(-c3ccc(Br)cc3)nn2)nc(-c2ccccc2)cc1=O` [Pyrimidin-4-one-1,2,3-triazole conjugate, 3a] displayed an IC50 of 744 nM. This counts as sub-micromolar.

In turn, `Cn1c(SCc2cn(-c3ccc(F)cc3)nn2)nc(-c2ccccc2)cc1=O` [Pyrimidin-4-one-1,2,3-triazole conjugate, 3b] had an IC50 of 200 nM.

Consider `Cn1c(SCc2cn(-c3ccccc3Br)nn2)nc(-c2ccccc2)cc1=O` [Pyrimidin-4-one-1,2,3-triazole conjugate, 3c], for which the midpoint of inhibition, the IC50, lay at 437 nM.

In turn, `Cc1ccccc1-n1cc(CSc2nc(-c3ccccc3)cc(=O)n2C)nn1` [Pyrimidin-4-one-1,2,3-triazole conjugate, 3d] showed an IC50 of 302 nM. Compound `Cn1c(SCc2cn(-c3ccccc3)nn2)nc(-c2ccccc2)cc1=O` [Pyrimidin-4-one-1,2,3-triazole conjugate, 3e] had an IC50 of 916 nM. With `Cn1c(SCc2cn(-c3ccc(C(C)(C)C)cc3)nn2)nc(-c2ccccc2)cc1=O` [Pyrimidin-4-one-1,2,3-triazole conjugate, 3f], half-maximal inhibition (IC50) required 1340 nM. Regarding `CCc1ccc(-n2cc(CSc3nc(-c4ccccc4)cc(=O)n3C)nn2)cc1` [Pyrimidin-4-one-1,2,3-triazole conjugate, 3g], the midpoint of inhibition, the IC50, lay at 94 nM.

`CCOc1ccc(-n2cc(CSc3nc(-c4ccccc4)cc(=O)n3C)nn2)cc1` [Pyrimidin-4-one-1,2,3-triazole conjugate, 3h]: the IC50 is 1440 nM. Compound `COc1ccccc1-n1cc(CSc2nc(-c3ccccc3)cc(=O)n2C)nn1` [Pyrimidin-4-one-1,2,3-triazole conjugate, 3i] yielded an IC50 of 1310 nM. Under `Cn1c(SCc2cn(-c3ccccc3F)nn2)nc(-c2ccccc2)cc1=O` [Pyrimidin-4-one-1,2,3-triazole conjugate, 3j] stands 122 nM. Consider `Cn1c(SCc2cn(-c3cccc(Cl)c3)nn2)nc(-c2ccccc2)cc1=O` [Pyrimidin-4-one-1,2,3-triazole conjugate, 3k], for which the IC50 was 502 nM. Under `Cn1c(SCc2cn(-c3cccnc3)nn2)nc(-c2ccccc2)cc1=O` [Pyrimidin-4-one-1,2,3-triazole conjugate, 3l] stands 1740 nM.

In the case of `Cn1c(SCc2cn(-c3ccccc3Cl)nn2)nc(-c2ccccc2)cc1=O` [Pyrimidin-4-one-1,2,3-triazole conjugate, 3m], the IC50 came out at 577 nM. Under `Cc1ccc(-n2cc(CSc3nc(-c4ccccc4)cc(=O)n3C)nn2)cc1C` [Pyrimidin-4-one-1,2,3-triazole conjugate, 3n] stands 82 nM; under `COc1ccc(-n2cc(CSc3nc(-c4ccccc4)cc(=O)n3C)nn2)cc1` [Pyrimidin-4-one-1,2,3-triazole conjugate, 3o], 1140 nM; under `Cn1c(SCc2cn(-c3ccc(Cl)cc3)nn2)nc(-c2ccccc2)cc1=O` [Pyrimidin-4-one-1,2,3-triazole conjugate, 3p], 1560 nM. The figure for `Cn1c(SCc2cn(-c3ccc([N+](=O)[O-])cc3)nn2)nc(-c2ccccc2)cc1=O` [Pyrimidin-4-one-1,2,3-triazole conjugate, 3q] is 587 nM; for `Cn1c(SCc2cn(-c3cccc([N+](=O)[O-])c3)nn2)nc(-c2ccccc2)cc1=O` [Pyrimidin-4-one-1,2,3-triazole conjugate, 3r] it is 153 nM.
